Experimental data from patent US8815946B2, “Inhibition of proliferation and fibrotic response of activated corneal stromal cells” (University of Pittsburgh—of the Commonwealth System of …, priority 2008, dated 2014).

Columns and labels:
α-SMA [1] = assay: Immunocytochemical analysis of α-SMA expression, rabbit corneal stromal cells; type: cell-based; conditions: 10 mM EP
Experimental: FIG. 4. Immunocytochemical analysis of α-SMA expression. Rabbit corneal stromal cells in P2 growing in DMEM/F12 with 10% FBS were subcultured into 35 mm tissue culture dishes. After 24 hrs of incubation, the media were replaced with DMEM/F12 medium containing 1% FBS and TGF-β1 with or without (control) 10 mM EP and incubated for four days (media were changed every 24 hours). The cells were fixed and stained for α-SMA (green) using an indirect fluorescence technique as described herein.
(§1) For immunocytochemical analyses, the cells were cultured on glass cover slips or tissue culture dishes. Cells were rinsed with phosphate-buffered saline (PBS), fixed with paraformaldehyde-lysine-periodate and permeabilized with PIPES buffer containing 0.2% Triton X-100, as described previously (Guerriero et al., Invest. Opthalmol. Vis. Sci. 2007; 48: 627-635). Fixed and permeabilized cells were reacted with 10% heat-inactivated goat serum in PBS, pH 7.5, for 45 minutes to block the nonspecific binding of the secondary antibody, rinsed with PBS, and then treated with the primary and secondary antibodies as described previously (Guerriero et al. Invest. Opthalmol. Vis. Sci. 2007; 48: 627-635). Primary antibodies included monoclonal rat anti-α smooth muscle actin (SMA) and anti-fibronectin. […]

GR-1 neutrophils = assay: Mouse corneal wound model, FACS with neutrophil marker GR-1; type: in vivo, Mus musculus strain C57; conditions: day 2 post-wounding
Text: A mouse model of corneal wound healing and inflammation induced by lipopolysacharide (LPS) was used to test the effect of EP. Khatari et al., Invest. Opthalmol. Vis. Sci. (2002) 43:2278-2284. Briefly, mice (Mus musculus strain C57, age approx. 2 months) were obtained from Charles River Laboratories in accordance with institutional protocols and divided into the following treatment groups (with 3 samples in each group):
Prior to wounding, all mice were anesthetized with an intraperitoneal injection of 50 mg/kg ketamine with 5 mg/kg xylazine. Topical anesthesia was further achieved with an additional 1 drop of 0.5% proparacaine per eye. Once the animal was sufficiently anesthetized, a corneal wound was constructed in each eye using a sterile 26-gauge needle that penetrated the epithelium and the superficial layers of the stroma. This linear scratch extended from the medial to lateral canthus (FIG. 12). 10 μg of the bacterial super-antigen LPS (Pseudomonas aeruginosa lipopolysaccharide, Sigma) was applied to the wound using a 10 μl pipette and allowed to penetrate the cornea for 5 minutes. Addition of bacterial endotoxin ensured a robust inflammatory response.
The wound was then washed with phosphate buffered saline (PBS/non-pyrogenic dH2O). […] The delivery and concentration of EP was determined according to Devamanoharan et al. (1999); 200(1-2):103-09. […]

fibronectin [2] = assay: Immunocytochemical analysis of fibronectin expression, human stromal cells; type: cell-based; conditions: human corneal cells treated with TGF-β1
Experimental: (§2) FIGS. 6A-6B. Immunocytochemical analysis of fibronectin expression. Normal human stromal cells (FIG. 6A) or rabbit corneal stromal cells (FIG. 6B) in P2 growing in DMEM/F12 with 10% FBS were subcultured into 35 mm tissue culture dishes. After 24 hrs of incubation, the media were replaced with DMEM/F12 medium containing 1% FBS and TGF-β1 with or without (control) 10 mM EP and incubated for four days (media were changed every 24 hours). The cells were fixed and double stained for fibronectin (green) and phalloidin (red) using an indirect fluorescence technique as described herein.
as §1

α-SMA [3] = assay: Western blot analyses of α-SMA, human corneal stromal cells; type: cell-based
Experimental: FIG. 5. Western blot analyses of α-SMA. Human corneal stromal cells in P2 growing in DMEM/F12 with 10% FBS were subcultured into 60 mm tissue culture dishes. After 24 hrs of incubation, the media were replaced with DMEM/F12 medium containing 1% FBS and TGF-β1 with or without (control) different concentrations of EP as indicated and incubated for two and four days (media were changed every 24 hours). The cells were extracted in RIPA buffer and the extracts containing 5 μg of total proteins were loaded per lane for Western blot analysis.
Keratocytes or fibroblasts grown under different culture conditions were extracted in RIPA buffer (9.1 mM dibasic sodium phosphate, 1.7 mM monobasic sodium phosphate, 150 mM NaCl, pH, 7.4, 1% Nonidet P-40, 0.5% sodium deoxycholate, 0.1% SDS, 0.03 TIU/mL aprotinin, 1 mM sodium orthovanadate, and 100 μg/mL phenylmethylsulfonyl fluoride (PMSF)). Aliquots of cell extracts containing 50 or 100 μg protein were subjected to SDS-PAGE. […] Immunoreactive bands were detected using chemiluminescence Western chemiluminescence reagents. […]

fibronectin [4] = assay: Immunocytochemical analysis of fibronectin expression, rabbit corneal stromal cells; type: cell-based; conditions: rabbit corneal cells treated with TGF-β1
Experimental: as §2, §1

## CCOC(=O)C(C)=O [ethyl pyruvate]
α-SMA [1]
  TGF-β1 induced expression of α-SMA (immunocytochemical): downregulated
GR-1 neutrophils
  neutrophils (GR-1) by FACS: 61.00±42.53
Fibronectin [2]
  fibronectin deposition in the matrix (immunocytochemical): concentration dependent downregulation
α-SMA [3]; TGF-β1
  EP concentration with highest downregulation of α-SMA: 20 mM
α-SMA [3]; two and four days, concentration dependent
  TGF-β1 induced expression of α-SMA (Western blot): down-regulated
Fibronectin [4]
  fibronectin deposition in the matrix (immunocytochemical): concentration dependent downregulation
